In ChEMBL document CHEMBL1137865, “Modeling the binding affinities of beta-secretase inhibitors: application to subsite specificity” (Bioorg Med Chem Lett, 2004):
Starred links: 1 amine or outer side, 2 acyl side, 3 side chain; linkers in the order of their positions; H or OH if unused. Non-standard residues stand in square brackets, D forms with d. Residues, ends and D or L forms follow the SMILES beside them. *: point of attachment. LeuΨ(S-CHOHCH2)Ala = CC(C)C[C@H](N[*:1])[C@@H](O)C[C@@H](C)C(=O)[*:2]; X1 = O=C(O)CC[C@H](N*)C(=O)C[C@@H](Cc1ccccc1)C(=O)O

target: Beta-secretase 1 (Homo sapiens, UniProt P56817); test: Binding affinity against Beta-secretase
Sequence (P56817 whole entry): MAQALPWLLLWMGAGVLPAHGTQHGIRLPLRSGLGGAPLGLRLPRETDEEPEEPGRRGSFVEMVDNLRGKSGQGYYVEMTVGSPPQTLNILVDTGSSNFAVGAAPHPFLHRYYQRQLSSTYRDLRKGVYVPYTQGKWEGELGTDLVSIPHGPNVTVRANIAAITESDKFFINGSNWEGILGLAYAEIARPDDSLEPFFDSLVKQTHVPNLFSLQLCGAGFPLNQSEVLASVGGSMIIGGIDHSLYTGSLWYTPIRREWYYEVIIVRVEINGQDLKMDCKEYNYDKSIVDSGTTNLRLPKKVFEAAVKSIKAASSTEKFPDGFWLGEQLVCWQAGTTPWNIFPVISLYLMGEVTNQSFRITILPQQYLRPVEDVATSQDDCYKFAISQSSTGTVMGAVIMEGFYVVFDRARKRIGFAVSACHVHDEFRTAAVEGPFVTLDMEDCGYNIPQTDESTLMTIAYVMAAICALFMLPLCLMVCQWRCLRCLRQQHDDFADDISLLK

| Compound | Ki [µM] | IC50 [µM] |
| --- | --- | --- |
| CCCN(CCC)C(=O)c1cccc(C(=O)N[C@@H](Cc2cc(F)cc(F)c2)[C@@H](O)C[C@@H](CC)C(=O)NCCC(=O)O)c1 |  | 2.8 |
| CCCN(CCC)C(=O)c1cccc(C(=O)N[C@@H](Cc2cc(F)cc(F)c2)[C@@H](O)C[C@@H](CC)C(=O)NCc2ccccc2)c1 |  | 1.4 |
| CCCN(CCC)C(=O)c1cccc(C(=O)N[C@@H](Cc2cc(F)cc(F)c2)[C@@H](O)C[C@@H](CC)C(=O)N[C@H]2C[C@@H](OC)C[C@@H](OC)C2)c1 |  | 6.6 |
| CCCN(CCC)C(=O)c1cccc(C(=O)N[C@@H](Cc2cc(F)cc(F)c2)[C@@H](O)C[C@@H](CC)C(=O)NC[C@H]2CC[C@H](C(=O)O)CC2)c1 |  | 0.05 |
| CCCN(CCC)C(=O)c1cccc(C(=O)N[C@@H](Cc2cc(F)cc(F)c2)[C@@H](O)C[C@@H](CC)C(=O)NCCCCC(=O)O)c1 |  | 0.4 |

Now from value to molecule:

| Ki [µM] | IC50 [µM] | Compound |
| --- | --- | --- |
| 3.13 |  | CC(C)C[C@H](NCC(=O)[C@H](CC(N)=O)NC(=O)OC(C)(C)C)C(O)CC(C)C(=O)NC(C(=O)NCc1ccccc1)C(C)C (some centres undefined) |
| 0.00032 |  | CC(C)C[C@H](NC(=O)[C@@H](N)CCC(=O)O)C(=O)N[C@@H](CC(=O)O)C(=O)N[C@@H](CC(C)C)[C@@H](O)C[C@@H](C)C(=O)N[C@H](C(=O)N[C@@H](CCC(=O)O)C(=O)C[C@@H](Cc1ccccc1)C(=O)O)C(C)C (H-ELD[LeuΨ(S-CHOHCH2)Ala]V-X1) |
| 22.4 |  | CC(C)C[C@H](NCC(=O)[C@H](CC(N)=O)NC(=O)OC(C)(C)C)C(O)CC(C)C(=O)NC(C)C(=O)NCc1ccccc1 (some centres undefined) |
| 1.13 |  | CC(C)C[C@H](NCC(=O)[C@H](CS(C)(=O)=O)NC(=O)OC(C)(C)C)C(O)CC(C)C(=O)NC(C(=O)NCc1ccccc1)C(C)C (some centres undefined) |
